Data published in US10947242B2, “[1,2,4]triazolo[1,5and#8208;A]pyrimidine compounds as PDE2 inhibitors” (Janssen Pharmaceutica NV, priority 2016, dated 2021).

Target: T1, Rat recombinant PDE10A (rPDE10A2) (Rattus norvegicus, UniProt Q9QYJ6)
T1 construct: His tag (inferred from metal chelate purification); made in house; host or cells: Sf9 insect cells (baculovirus)
T1 sequence (Q9QYJ6 1-794): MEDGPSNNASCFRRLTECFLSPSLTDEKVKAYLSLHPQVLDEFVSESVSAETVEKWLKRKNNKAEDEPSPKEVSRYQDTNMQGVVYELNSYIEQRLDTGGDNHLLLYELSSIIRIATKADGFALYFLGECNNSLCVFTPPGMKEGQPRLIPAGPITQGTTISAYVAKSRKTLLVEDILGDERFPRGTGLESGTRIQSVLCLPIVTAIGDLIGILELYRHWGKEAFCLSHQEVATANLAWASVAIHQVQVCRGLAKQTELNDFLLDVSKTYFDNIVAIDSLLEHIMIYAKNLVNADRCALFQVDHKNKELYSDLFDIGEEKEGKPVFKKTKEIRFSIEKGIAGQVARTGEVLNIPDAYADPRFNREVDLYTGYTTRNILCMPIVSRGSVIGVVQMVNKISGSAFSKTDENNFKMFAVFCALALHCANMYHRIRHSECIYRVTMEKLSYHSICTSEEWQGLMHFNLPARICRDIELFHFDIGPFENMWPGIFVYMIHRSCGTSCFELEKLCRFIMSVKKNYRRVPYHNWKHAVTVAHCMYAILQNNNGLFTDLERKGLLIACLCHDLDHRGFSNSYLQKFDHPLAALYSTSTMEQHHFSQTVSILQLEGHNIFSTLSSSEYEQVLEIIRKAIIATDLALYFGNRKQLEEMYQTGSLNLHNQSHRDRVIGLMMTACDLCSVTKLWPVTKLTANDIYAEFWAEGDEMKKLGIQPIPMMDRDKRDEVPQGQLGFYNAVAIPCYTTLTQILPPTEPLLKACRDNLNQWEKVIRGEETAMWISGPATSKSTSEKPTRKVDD
Test: In vitro assay PDE10A, rat clone (SPA, 3H-cAMP hydrolysis)
Format: biochemical
Protocol: Rat recombinant PDE10A (rPDE10A2) was expressed in Sf9 cells using a recombinant rPDE10A baculovirus construct. Cells were harvested after 48 h of infection and the rPDE10A protein was purified by metal chelate chromatography on Ni-sepharose 6FF. Tested compounds were dissolved and diluted in 100% DMSO to a concentration 100 fold of the final concentration in the assay. Human recombinant PDE10A ([…]) was expressed in Sf9 cells using a recombinant hPDE10A baculovirus that was made and amplified in house. Cells were harvested after 72 h of infection and the hPDE10A protein was purified by metal chelate chromatography on Ni-sepharose. Compound dilutions (0.4 μl) were added in 384 well plates to 20 μl of incubation buffer (50 mM Tris pH 7.8, 8.3 mM MgCl2, 1.7 mM EGTA). 10 μl of rPDE10A or hPDE10A enzyme in incubation buffer was added and the reaction was started by addition of 10 μl substrate to a final concentration of 60 nM cAMP and 0.008 μCi ^3H-cAMP. The reaction was incubated for 60 minutes at room temperature. After incubation, the reaction was stopped with 20 μl of stop solution consisting of 17.8 mg/ml PDE SPA (scintillation proximity assay) beads. After sedimentation of the beads during 30 minutes the radioactivity was measured in a Perkin Elmer Topcount scintillation counter and results were expressed as cpm. For blanc values the enzyme was omitted from the reaction and replaced by incubation buffer. Control values were obtained by addition of a final concentration of 1% DMSO instead of compound. A best fit curve is fitted by a minimum sum of squares method to the plot of % of control value subtracted with blanc value versus compound concentration and the half maximal inhibitory concentration (IC50) value is derived from this curve.

C[C@@H]1CCN(C(=O)c2ccc3c(ccn3CCF)c2)C[C@H]1c1cc(C(F)F)nc2ncnn12 [Compound 89]
Emax (rat clone (r)): 98%
IC50 (rat clone (r), read-out: rPDE10A2 pIC50 (converted)): 12 nM
rPDE10A2 pIC50 (rat clone, indicated as (r)): 7.92 (r)
